Assay results taken from US7253187B2, “Heterocyclic inhibitors of ERK2 and uses thereof” (Vertex Pharmaceuticals Incorporated, priority 2001, dated 2007).

Experiments:
Assay type in all cases: biochemical
GSK-3β (AA 1–420) = target: T1, GSK-3β (AA 1–420) (Homo sapiens, UniProt P49841); assay: GSK-3 inhibition assay (coupled enzyme system); details: read-out: GSK3 Inhibitory Activity (Ki class)
T1 construct: GSK-3β (AA 1–420)
Summary of the method: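 ADP production read via pyruvate kinase/lactate dehydrogenase–coupled NADH consumption over 10 min at 30 °C. Ki derived from rates versus inhibitor concentration.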

CDK-2/Cyclin A = CDK-2/Cyclin A (Homo sapiens, UniProt P24941); assay: CDK-2 inhibition assay (coupled enzyme assay)
Protocol: To an assay stock buffer solution containing 0.1M HEPES 7.5, 10 mM MgCl2, 1 mM DTT, 25 mM NaCl, 2.5 mM phosphoenolpyruvate, […], […], […], […], and 100 μM peptide ([…], American Peptide, Sunnyvale, Calif.) was added a DMSO solution of a compound of the present invention to a final concentration of 30 μM.
The Ki values were determined from the rate data as a function of inhibitor concentration.

ERK2 = ERK2 (Homo sapiens, UniProt P28482); assay: ERK2 inhibition assay (spectrophotometric coupled-enzyme assay); details: read-out: ERK2 Inhibitory Activity (Ki class D-F)
ERK2, sequence (P28482 whole entry): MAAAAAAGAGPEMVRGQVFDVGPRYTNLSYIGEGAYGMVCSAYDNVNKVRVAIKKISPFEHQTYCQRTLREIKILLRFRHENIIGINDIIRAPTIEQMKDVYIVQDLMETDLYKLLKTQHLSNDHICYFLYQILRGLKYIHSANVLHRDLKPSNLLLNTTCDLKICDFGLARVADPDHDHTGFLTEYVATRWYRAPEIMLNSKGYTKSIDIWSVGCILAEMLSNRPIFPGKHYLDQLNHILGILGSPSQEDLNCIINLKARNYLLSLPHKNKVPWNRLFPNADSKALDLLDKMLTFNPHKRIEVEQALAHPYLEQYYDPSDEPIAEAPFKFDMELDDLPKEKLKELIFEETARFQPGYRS
Protocol: The IC50 was evaluated from the rate data as a function of inhibitor concentration. […] The compound numbers correspond to the compound numbers in Table 1.

Aurora-2 = target: T2, Aurora-2 (Homo sapiens, UniProt O14965); assay: Aurora-2 inhibition assay (coupled enzyme assay)
T2 sequence (O14965 1-403): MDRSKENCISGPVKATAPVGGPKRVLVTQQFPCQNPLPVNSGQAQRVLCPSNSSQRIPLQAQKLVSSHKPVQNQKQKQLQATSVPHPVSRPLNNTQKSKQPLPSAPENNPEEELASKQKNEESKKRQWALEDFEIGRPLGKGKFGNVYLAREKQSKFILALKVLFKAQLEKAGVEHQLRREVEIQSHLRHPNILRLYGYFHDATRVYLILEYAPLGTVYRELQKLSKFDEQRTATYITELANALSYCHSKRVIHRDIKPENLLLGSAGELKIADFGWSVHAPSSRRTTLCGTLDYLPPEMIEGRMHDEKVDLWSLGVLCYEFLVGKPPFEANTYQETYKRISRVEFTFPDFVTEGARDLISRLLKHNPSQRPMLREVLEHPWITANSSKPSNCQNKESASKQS
Protocol: Compounds were screened in the following manner for their ability to inhibit Aurora-2 using a standard coupled enzyme assay (Fox et al (1998) Protein Sci 7, 2249).
To an assay stock buffer solution containing 0.1M HEPES 7.5, 10 mM MgCl2, 1 mM DTT, 25 mM NaCl, 2.5 mM phosphoenolpyruvate, […], 30 mg/ml pyruvate kinase, 10 mg/ml lactate dehydrogenase, […], and 800 μM peptide (LRRASLG, American Peptide, Sunnyvale, Calif.) was added a DMSO solution of a compound of the present invention to a final concentration of 30 μM. The resulting mixture was incubated at 30° C. for 10 min. The reaction was initiated by the addition of 10 μL of Aurora-2 stock solution to give a final concentration of 70 nM in the assay. The rates of reaction were obtained by monitoring absorbance at 340 nm over a 5 minute read time at 30° C. using a BioRad Ultramark plate reader (Hercules, Calif.). The Ki values were determined from the rate data as a function of inhibitor concentration.

ERK1 = ERK1 (Homo sapiens, UniProt P27361); assay: ERK1 inhibition assay (spectrophotometric coupled-enzyme assay); details: read-out: inhibit ERK1 with an activity (Ki)
ERK1, sequence (P27361 whole entry, species assumed): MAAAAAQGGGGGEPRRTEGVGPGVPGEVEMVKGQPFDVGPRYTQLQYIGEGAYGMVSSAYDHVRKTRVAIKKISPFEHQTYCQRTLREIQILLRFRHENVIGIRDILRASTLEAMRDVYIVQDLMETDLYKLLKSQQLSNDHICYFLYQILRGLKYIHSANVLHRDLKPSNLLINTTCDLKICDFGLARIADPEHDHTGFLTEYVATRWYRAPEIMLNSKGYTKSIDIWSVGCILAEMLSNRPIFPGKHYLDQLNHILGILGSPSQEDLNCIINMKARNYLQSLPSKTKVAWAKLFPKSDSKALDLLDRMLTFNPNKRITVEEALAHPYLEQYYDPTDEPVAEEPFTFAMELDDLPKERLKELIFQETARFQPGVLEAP
Protocol: Compounds were assayed for the inhibition of ERK1 by a spectrophotometric coupled-enzyme assay (Fox et al (1998) Protein Sci 7, 2249). In this assay, a fixed concentration of activated ERK1 (20 nM) was incubated with various concentrations of the compound in DMSO (2.0%) for 10 min. at 30° C. in 0.1 M HEPES buffer, pH 7.6, containing 10 mM MgCl2, 2.5 mM-phosphoenolpyruvate, 200 μM NADH, 30 μg/mL pyruvate kinase, 10 μg/mL lactate dehydrogenase, and 150 μM erktide peptide. The reaction was initiated by the addition of 140 μM ATP (20 μL). The rate of decrease of absorbance at 340 nm was monitored. The Ki was evaluated from the rate data as a function of inhibitor concentration.

T1 sequence (P49841 whole entry, species assumed, the tested form may be a part): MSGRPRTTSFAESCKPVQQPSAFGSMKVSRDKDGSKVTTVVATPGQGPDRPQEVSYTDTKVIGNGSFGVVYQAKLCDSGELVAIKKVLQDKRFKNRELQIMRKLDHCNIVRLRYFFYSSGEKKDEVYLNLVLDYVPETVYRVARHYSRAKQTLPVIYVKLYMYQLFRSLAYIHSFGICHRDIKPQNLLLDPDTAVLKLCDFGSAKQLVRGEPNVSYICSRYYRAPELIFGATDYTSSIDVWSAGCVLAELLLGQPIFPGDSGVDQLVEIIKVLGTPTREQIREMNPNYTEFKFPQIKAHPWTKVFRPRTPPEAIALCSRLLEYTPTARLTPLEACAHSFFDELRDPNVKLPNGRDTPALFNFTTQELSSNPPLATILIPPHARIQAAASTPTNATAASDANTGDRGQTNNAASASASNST

| Structure (SMILES) | Ki (GSK-3β (AA 1–420)) | Ki (CDK-2/Cyclin A) | Ki (ERK2) | found to inhibit Aurora-2 (Aurora-2) | Ki (ERK1) |
| --- | --- | --- | --- | --- | --- |
| Cc1cnc(Nc2ccccc2)nc1-c1c[nH]c(C(=O)NC(CO)c2cccc(C(F)(F)F)c2)c1 (stereo not drawn) [III-a-146, 4-(5-Methyl-2-phenylamino-pyrimidin-4-yl)-1H-pyrrole-2-carboxylic acid [2-hydroxy-1-(3-trifluoromethyl-phenyl)-ethyl]-amide] | 0.1 to 1 µM | 0.1 to 1 µM | – | – | – |
| CCNc1ncc(C)c(-c2c[nH]c(C(=O)N[C@H](CO)c3ccccc3)c2)n1 [III-a-117, 4-(2-Ethylamino-5-methyl-pyrimidin-4-yl)-1H-pyrrole-2-carboxylic acid (2-hydroxy-1-phenyl-ethyl)-amide] | < 0.1 µM | 1 to 20 µM | < 0.1 µM | found to inhibit Aurora-2 | – |
| Cc1cnc(N[C@H](CO)c2ccccc2)nc1-c1c[nH]c(C(=O)N[C@H](CO)c2ccccc2)c1 [III-a-155, 4-[2-(2-Hydroxy-1-(S)-phenyl-ethylamino)-5-methyl-pyrimidin-4-yl]-1H-pyrrole-2-carboxylic acid (2-hydroxy-1-(S)-phenyl-ethyl)-amide] | 0.1 to 1 µM | 0.1 to 1 µM | < 0.1 µM | – | – |
| Cc1cnc(NC2CC2)nc1-c1c[nH]c(C(=O)NC(CO)c2cccc(C(F)(F)F)c2)c1 (stereo not drawn) [III-a-202, 4-(2-Cyclopropylamino-5-methyl-pyrimidin-4-yl)-1H-pyrrole-2-carboxylic acid [2-hydroxy-1-(3-trifluoromethyl-phenyl)-ethyl]-amide] | > 1 µM | – | < 0.1 µM | – | < 0.1 µM |
| Cc1cnc(Nc2ccc(OCc3ccccc3)cc2)nc1-c1c[nH]c(C(=O)NC(CO)c2ccccc2)c1 (stereo not drawn) [III-a-152, 4-[2-(4-Benzyloxy-phenylamino)-5-methyl-pyrimidin-4-yl]-1H-pyrrole-2-carboxylic acid (2-hydroxy-1-phenyl-ethyl)-amide] | < 0.1 µM | < 0.1 µM | < 0.1 µM | – | – |
| Cc1cnc(Nc2cccc(C(F)(F)F)c2)nc1-c1c[nH]c(C(=O)NC(CO)c2ccccc2)c1 (stereo not drawn) [III-a-149, 4-[5-Methyl-2-(3-trifluoromethyl-phenylamino)-pyrimidin-4-yl]-1H-pyrrole-2-carboxylic acid (2-hydroxy-1-phenyl-ethyl)-amide] | < 0.1 µM | < 0.1 µM | < 0.1 µM | – | – |
| Cc1cnc(Nc2cccc(F)c2)nc1-c1c[nH]c(C(=O)NC(CO)c2cccc(C(F)(F)F)c2)c1 (stereo not drawn) [III-a-148, 4-[2-(3-Fluoro-phenylamino)-5-methyl-pyrimidin-4-yl]-1H-pyrrole-2-carboxylic acid [2-hydroxy-1-(3-trifluoromethyl-phenyl)-ethyl]-amide] | < 0.1 µM | 0.1 to 1 µM | < 0.1 µM | – | – |
| Cc1cnc(NCc2ccccc2)nc1-c1c[nH]c(C(=O)NC(CO)c2ccccc2)c1 (stereo not drawn) [III-a-150, 4-(2-Benzylamino-5-methyl-pyrimidin-4-yl)-1H-pyrrole-2-carboxylic acid (2-hydroxy-1-phenyl-ethyl)-amide] | 0.1 to 1 µM | 0.1 to 1 µM | < 0.1 µM | – | – |
| Cc1cnc(Nc2cccc(OCc3ccccc3)c2)nc1-c1c[nH]c(C(=O)NC(CO)c2ccccc2)c1 (stereo not drawn) [III-a-141, 4-[2-(3-Benzyloxy-phenylamino)-5-methyl-pyrimidin-4-yl]-1H-pyrrole-2-carboxylic acid (2-hydroxy-1-phenyl-ethyl)-amide] | < 0.1 µM | – | < 0.1 µM | found to inhibit Aurora-2 | – |
| Cc1cnc(NC(C)CO)nc1-c1c[nH]c(C(=O)NC(CO)c2ccccc2)c1 (stereo not drawn) [III-a-176, 4-[2-(2-Hydroxy-1-methyl-ethylamino)-5-methyl-pyrimidin-4-yl]-1H-pyrrole-2-carboxylic acid (2-hydroxy-1-phenyl-ethyl)-amide] | < 0.1 µM | – | < 0.1 µM | – | – |

Continued, values first:

| Ki (GSK-3β (AA 1–420)) | Ki (CDK-2/Cyclin A) | Ki (ERK2) | found to inhibit Aurora-2 (Aurora-2) | Ki (ERK1) | Structure (SMILES) |
| --- | --- | --- | --- | --- | --- |
| 0.1 to 1 µM | 1 to 20 µM | – | – | – | COc1ccccc1Nc1ncc(C)c(-c2c[nH]c(C(=O)NC(CO)c3ccccc3)c2)n1 (stereo not drawn) [III-a-156, 4-[2-(2-Methoxy-phenylamino)-5-methyl-pyrimidin-4-yl]-1H-pyrrole-2-carboxylic acid (2-hydroxy-1-phenyl-ethyl)-amide] |
| 0.1 to 1 µM | – | < 0.1 µM | – | < 0.1 µM | Cc1cccc(C(CO)NC(=O)c2cc(-c3nc(NC4CC4)ncc3C)c[nH]2)c1 (stereo not drawn) [III-a-205, 4–1(2-Cyclopropylamino-5-methyl-pyrimidin-4-yl)-1H-pyrrole-2-carboxylic acid (2-hydroxy-1-m-tolyl-ethyl)-amide] |
| < 0.1 µM | 0.1 to 1 µM | < 0.1 µM | – | – | Cc1cnc(NC2(CO)CC2)nc1-c1c[nH]c(C(=O)NC(CO)c2ccccc2)c1 (stereo not drawn) [III-a-174, 4-[2-(1-Hydroxymethyl-cyclopropylamino)-5-methyl-pyrimidin-4-yl]-1H-pyrrole-2-carboxylic acid (2-hydroxy-1-phenyl-ethyl)-amide] |
| < 0.1 µM | 1 to 20 µM | < 0.1 µM | – | – | Cc1cnc(NCC2CC2)nc1-c1c[nH]c(C(=O)NC(CO)c2ccccc2)c1 (stereo not drawn) [III-a-159, 4-[2-(Cyclopropylmethyl-amino)-5-methyl-pyrimidin-4-yl]-1H-pyrrole-2-carboxylic acid (2-hydroxy-1-phenyl-ethyl)-amide] |
| – | – | < 0.1 µM | – | < 0.1 µM | Cc1cnc(NC2CC2)nc1-c1c[nH]c(C(=O)NC(CO)c2cccc(Cl)c2)c1 (stereo not drawn) [III-a-204, 4-(2-Cyclopropylamino-5-methyl-pyrimidin-4-yl)-1H-pyrrole-2-carboxylic acid [1-(3-chloro-phenyl)-2-hydroxy-ethyl]-amide] |
| < 0.1 µM | – | – | found to inhibit Aurora-2 | – | Cc1cnc(Nc2cccc(O)c2)nc1-c1c[nH]c(C(=O)NC(CO)c2ccccc2)c1 (stereo not drawn) [III-a-138, 4-[2-(3-Hydroxy-phenylamino)-5-methyl-pyrimidin-4-yl]-1H-pyrrole-2-carboxylic acid (2-hydroxy-1-phenyl-ethyl)-amide] |
| – | – | – | found to inhibit Aurora-2 | – | Cc1cnc(Nc2ccccc2)nc1-c1c[nH]c(C(=O)NC(CO)c2ccccc2)c1 (stereo not drawn) [III-a-116, 4-(5-Methyl-2-phenylamino-pyrimidin-4-yl)-1H-pyrrole-2-carboxylic acid (2-hydroxy-1-phenyl-ethyl)-amide] |
| < 0.1 µM | < 0.1 µM | < 0.1 µM | – | – | Cc1cnc(NC2CCC(O)CC2)nc1-c1c[nH]c(C(=O)NC(CO)c2ccccc2)c1 (stereo not drawn) [III-a-142, 4-[2-(4-Hydroxy-cyclohexylamino)-5-methyl-pyrimidin-4-yl]-1H-pyrrole-2-carboxylic acid (2-hydroxy-1-phenyl-ethyl)-amide] |
| < 0.1 µM | 0.1 to 1 µM | < 0.1 µM | – | – | Cc1cnc(NC2CC2)nc1-c1c[nH]c(C(=O)N[C@H](CO)c2ccccc2)c1 [III-a-162, 4-(2-Cyclopropylamino-5-methyl-pyrimidin-4-yl)-1H-pyrrole-2-carboxylic acid (2-hydroxy-1-(S)-phenyl-ethyl)-amide] |
| < 0.1 µM | – | < 0.1 µM | found to inhibit Aurora-2 | – | Cc1cnc(Nc2ccc(S(N)(=O)=O)cc2)nc1-c1c[nH]c(C(=O)NC(CO)c2ccccc2)c1 (stereo not drawn) [III-a-140, 4-[5-Methyl-2-(4-sulfamoyl-phenylamino)-pyrimidin-4-yl]-1H-pyrrole-2-carboxylic acid (2-hydroxy-1-phenyl-ethyl)-amide] |
